Results on three substances are retold here after patent US20040229933A1, “Treatment of hypertension” (Pfizer Inc, priority 2003, published 2004).

In one assay the target is GPR54 (Homo sapiens, UniProt Q969F8). The settings on record: cited from earlier work.
The test system of another assay is rat aortic rings. The assay can be described thus: Isolated rat aorta assay (organ bath, aortic rings). The settings on record: organ bath system. As for the experimental part:
Segments of endothelium intact rat aorta were trim cleaned of fat and surrounding connective tissues and aortic rings strung up in 5 ml organ baths and perfused with oxygenated modified Kreb's solution (118 mM NaCl, 4.7 mM KCl, 25 mM NaHCO3, 11.1 mM glucose, 1.18 mM KH2PO4, 1.18 mM MgSO4 and 2mM CaCl2). Following an equilibration period of approximately 60 min, tissues were challenged with 1 μM phenylephrine (PE). Following a stable response tissues were washed and the above dose of PE was repeated. Once the tissues reached a maximum response 1 μM acetylcholine was administered to determine the percentage of endothelium dependent relaxation. Tissues were washed and cumulative concentration response curves were constructed to Kiss-1 and urotensin-II for a comparison. […] The potential for Kiss-1 mediated vasorelaxation was assessed in aortic rings pre-constricted with 300 nM noradrenaline along with appropriate control tissues with no drug. Drug potency (EC50) and efficacy (Emax) was determined.
Rat aortic rings are set up as described before for measuring Kiss-1 potency and efficacy in a 5 ml organ bath set-up. The potency of antagonist can be determined by constructing a dose response curve to Kiss-1 in the presence of a single concentration of Kiss-1 antagonist or vehicle. […]

Assay [1] concerns CHO cells transfected with GPR54. The settings on record: cited from earlier work.

Ends that are not written are not given here.

Chain of GPR54 (Q969F8 whole entry, species assumed): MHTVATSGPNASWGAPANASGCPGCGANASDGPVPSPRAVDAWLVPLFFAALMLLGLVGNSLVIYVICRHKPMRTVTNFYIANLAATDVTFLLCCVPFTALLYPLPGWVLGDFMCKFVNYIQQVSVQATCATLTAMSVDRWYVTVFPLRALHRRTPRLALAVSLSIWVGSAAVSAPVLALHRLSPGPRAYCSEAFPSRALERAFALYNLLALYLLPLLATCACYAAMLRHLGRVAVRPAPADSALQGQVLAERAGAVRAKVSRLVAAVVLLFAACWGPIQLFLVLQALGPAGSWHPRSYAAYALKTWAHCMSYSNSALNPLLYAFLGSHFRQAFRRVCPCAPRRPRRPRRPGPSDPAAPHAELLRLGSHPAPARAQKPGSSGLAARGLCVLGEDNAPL

With “Kiss-1 (40-54): C-terminal fragment of Kiss-1 (KDLPNYNWNSFGLRF-NH2; UniProt Q15726 107-121, looked up, fragment)”, the “agonist activity at GPR54” value with GPR54 is “potent agonists”. As for “Kiss-1 (45-54): C-terminal fragment of Kiss-1, derived from the 54 amino acid Kiss peptide sequence; Kiss-1 receptor agonist (YNWNSFGLRF-NH2; UniProt Q15726 112-121, looked up, fragment)”, in the assay on rat aortic rings, the vasoconstriction result is recorded as “vasoconstriction”.

For the substance “Kiss-1: carboxy-terminally amidated peptide with 54 amino acid residues, also called metastin, isolated from human placenta (GTSLSPPPESSGSPQQPGLSAPHSRQIPAPQGAVLVQREKDLPNYNWNSFGLRF-NH2; UniProt Q15726 68-121, looked up)”, the vasoconstriction entry with rat aortic rings is recorded as “potent vasoconstrictor”. Moreover, in assay [1], the “migration, chemotaxis and invasion” value was “inhibits migration, chemotaxis and invasion”. In addition, the “agonist activity at GPR54” value in the assay with GPR54 is “potent agonists”.
